Data taken from patent publication US6495529B1 (Warner-Lambert Company, priority 1998, dated 2002).
Like-named read-outs stand apart in the source and are kept apart here.

Key:
[1] = Locomotor stimulant and depressant effects in mice; conditions: male, Swiss-Webster, mouse, in vivo, ip
Experimental: (§1) Male Swiss-Webster mice (HSD ND4, Harlan Sprague Dawley, Houston, Tex.) aged 2-3 months were used in these studies. Each dose group consisted of 8 mice. The mice were housed 2 to 4 per cage in 30.4×22.9×15.2 cm clear polycarbonate cages with food and water available ad libitum for at least one week prior to locomotor activity testing. The colony was maintained at 23±1° C., on a normal light-dark cycle beginning at 0700 hr. All testing took place during the light portion of the light-dark cycle.
(§2) Horizontal (forward movement) locomotor activity was measured using a standardized, optical activity monitoring system [Model KXYZCM (16), Omnitech Electronics, Columbus, Ohio]. Activity was monitored in forty 40.5×40.5×30.5 cm clear acrylic chambers that where housed in sets of two within larger sound-attenuating chambers. A panel of 16 infrared beams and corresponding photodetectors were spaced 2 cm apart along the sides and 2.4 cm above the floor of each activity chamber. A 7.5-W incandescent light above each chamber provided dim illumination via a rheostat set to 20% of full scale. Fans provided an 80-dB ambient noise level within the chamber.
(§3) (+)-Amphetamine was used as a positive control. The total horizontal distance traversed (cm) was recorded at 10 minute intervals for a 2-hour session. Separate groups of 8 mice were assigned to each dose or saline group, and dose-effect testing continued for each compound until maximal stimulant or depressant effects could be estimated. A separate control group was tested along with each compound.
(§4) Using TableCurve 2D v2.03 (Jandel Scientific), the mean average total distance traversed (cm/10 min) for that period was fit to a 3-parameter logistic peak function of log10 dose (with the constant set to the mean of the saline group), and the maximum effect estimated from the resulting curve. The ED50 (dose producing ½ maximal stimulant activity) was estimated from a linear regression against log10 dose of the ascending portion of the dose-effect curve. The stimulant efficacy was the peak effect of the compound (cm/10 min) as estimated from the logistic peak function, minus the mean control distance traveled (cm/10 min), and was expressed for each stimulant compound as a ratio to the stimulant efficacy determined for (+)-amphetamine.
(§5) The mean average total distance traversed (cm/10 min) for that period were fit to a linear function of log10 dose of the descending portion of the dose-effect curve. […] Efficacy was the ratio of maximal depressant effect to maximum possible depression for each compound (mean average total distance of the control group minus the lowest mean total distance, expressed as a ratio to the control group total distance).
(§6) Time course data for each compound were considered in 2-way analyses of variance with dose as a between-group and time as a within-group factor. The dose-effect data were considered in 1-way analyses of variance, and planned individual comparisons were conduced between each dose and the saline control group. Interaction studies were considered in 2-way analyses of variance, with Pretreatment and Test dose as the factors.

Swiss-Webster mice [2] = assay: Locomotor stimulant and depressant effects in mice; conditions: mice, i.p.; for locomotor depressant effect (in words) / locomotor stimulant effect (in words): 2-hour session
Experimental: as §1, §2, §3, §4, §5, §6

[3] = system: New Zealand white rabbits; assay: Pupil diameter / mydriasis after topical application to rabbit eye; conditions: for mydriasis / effect on pupil diameter (in words): topical, rabbit
[4] = system: New Zealand white rabbits; assay: Intraocular pressure (IOP) after topical application to rabbit eye; conditions: rabbit; for effect on IOP (in words): topical 1% and 2%, treated eye
α1-receptors = assay type: binding, dog; conditions: read-out: Alpha-1 Ki
Experimental: (§7) The lungs of mongrel dogs were separated from cartilaginous airways and major blood vessels, weighted, chopped and placed into 10 volumes of ice-cold buffered sucrose (50 mM Tris-HCl pH 7.4, 1 mM EGTA, 0.32 M Sucrose). The tissue was then homogenized in a Polytron tissue homogenizer. The homogenate was filtered through two layers of cheesecloth, and the filtrate was dounced three times using a Con-Turque Potter homogenizer. […] The supernatant was recentrifuged at 30,000×g for 30 min at 4° C. and the resulting pellet was washed and resuspended in 10 volumes of Tris buffer (50 mM Tris HCL, pH 7.4, 1 mM EGTA) and incubated at 37° C. for 30 min in a shaking water bath. The suspension was centrifuged at 4° C., at 30,000×g for 30 min and the resulting pellet washed in 10 volumes of Tris buffer. […] Protein concentration was then determined by the Lowry method and the final suspension was adjusted to 10 mg of protein/ml, aliquoted and stored at −90° C.
Nonspecific binding was determined for each concentration point in separate incubations, with 10 μM phentolamine. Each experimental point was determined in triplicate. […] All binding assay incubations were terminated by rapid dilution with 2 ml of ice-cold wash buffer (50 mM Tris-HCl, pH 7.4) and filtration through Whatman GF/B filters using Brandel receptor-binding harvester.
(§8) All data were analyzed with the aid of microcomputer nonlinear curve fitting programs (PRISM 2.0, Graphpad Software, San Diego Calif.).
(§9) The receptors resident in each of the three membrane preparations were evaluated by standard saturation analysis following the addition of increasing concentrations of the appropriate radioligand. […]

rats = assay: Dosage that raised mean arterial pressure 10% in rat; assay type: in vivo
α2-receptors = assay: ALPHA-2 binding, p-125Iodoclonidine, canine brain (frontal cortex) membranes; parameters: species or system dog; conditions: for Kd: radioligand
Experimental: Membranes of mongrel dogs were harvested from the canine frontal cortex and prepared as described for lung except that the final membrane protein concentration was adjusted to 0.5 mg/ml.
Nonspecific binding was determined in separate incubations in the presence of 10 μM phentolamine. The final concentration of p-iodoclonidine was 44-45 pM in competition studies and between 50 pM and 10 nM in saturation experiments. Bound and free […] were separated and the bound quantitated as described above for the ICYP assays.
as §8
The receptors resident in each of the three membrane preparations were evaluated by standard saturation analysis following the addition of increasing concentrations of the appropriate radioligand.
The radio ligand added for subsequent α2-displacement assays was adjusted to evaluate only the high affinity receptor. Contributions from p-iodoclonidine binding to imidazoline receptors in the α2-displacement assay were evaluated with epinephrine.

Swiss-Webster mice [5] = conditions: for modification of stimulant or depressant effects by triprolidine pretreatment: mice pretreated with 0.01, 0.1 or 1.0 mg/kg triprolidine
mongrel dogs = assay: Intravenous dose increasing mean arterial pressure 10% in anesthetized dogs; conditions: anesthetized dog, i.v.
[6] = system: histamine-challenged rats; assay: Nasal airway pressure in histamine-challenged rats; conditions: Investigation 1, rats
Sprague Dawley rats = assay: Nasal airway pressure in normal (non-histamine-challenged) rats; conditions: 100% dose i.v., non-histamine-challenged rats
β2-receptors = target: T1, β2-receptors (Canis lupus familiaris, UniProt P54833); assay: BETA-2 binding, 125Iodocyanopindolol (ICYP), canine lung membranes; parameters: species or system dog; conditions: radioligand
T1 construct: The lungs of mongrel dogs were separated from cartilaginous airways and major blood vessels; from tissue; host or cells: mongrel dog lung membranes
Experimental: as §7
Particulated were also prepared for β2 receptors using the identical procedure except the final protein concentration was adjusted to 0.1 mg/ml.
Nonspecific binding was determined in separate incubations in the presence of 2 μM dipropranolol. Each experimental point was determined in triplicate. […] Incubations were terminated as described above for the α1 assays. Filters were placed into polyethylene tubes and the bound ligand was determined by gamma spectrometry (Sano et al., 1993).
as §8, §9

[7] = Table 4, no unit in table, IC50 defined in μM, read-out: Alpha-2 IC50

T1 sequence (P54833 whole entry): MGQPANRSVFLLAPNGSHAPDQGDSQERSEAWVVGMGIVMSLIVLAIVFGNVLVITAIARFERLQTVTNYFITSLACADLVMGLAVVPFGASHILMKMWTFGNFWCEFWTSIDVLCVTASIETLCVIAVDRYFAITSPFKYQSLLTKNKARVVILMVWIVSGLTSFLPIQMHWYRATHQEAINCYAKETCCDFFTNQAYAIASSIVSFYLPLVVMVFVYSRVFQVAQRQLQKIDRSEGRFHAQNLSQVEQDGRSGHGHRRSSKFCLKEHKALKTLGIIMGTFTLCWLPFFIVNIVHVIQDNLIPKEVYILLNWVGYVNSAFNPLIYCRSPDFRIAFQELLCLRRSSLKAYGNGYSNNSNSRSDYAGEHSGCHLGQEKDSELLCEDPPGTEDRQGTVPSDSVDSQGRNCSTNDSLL

SMILES: CN[C@@H](C)[C@@H](O)c1ccccc1 (single isomer, unassigned) [(+)-pseudoephedrine]
- ED50 at 30 min [1]: 12.6 mg/kg
- locomotor depressant effect (in words) (Swiss-Webster mice [2]): some locomotor depression
- locomotor stimulant effect (in words) (Swiss-Webster mice [2]): negligible stimulation compared to (−)-ephedrine, but weak stimulation when comared to (+)-amphetamine
- mydriasis / effect on pupil diameter (in words) [3]: produced mydriasis in the treated eye
- effect on IOP (in words) [4]: slight acute elevation in IOP in the treated eye
- effect on IOP in the contralateral eye (in words) ([4]; topical): delayed elevation in IOP
- reversal of locomotor depression by triprolidine (Swiss-Webster mice [5]; 25, 50 or 100 mg/kg test drug, following 0.01 mg/kg triprolidine): reversed
- reversal of locomotor depression by triprolidine (Swiss-Webster mice [5]; following 1.0 mg/kg triprolidine): no significant reversal
- modification of stimulant or depressant effects by triprolidine pretreatment (Swiss-Webster mice [5]): Significant effects for pretreatment with triprolidine

SMILES: CN[C@H](C)[C@H](O)c1ccccc1 (single isomer, unassigned) [(−)-pseudoephedrine]
- decongestant activity (in words) [6]: as good as, or superior to, several commercially available decongestants
- ED50 at 30 min [1]: 14.6 mg/kg
- Depression Potency (ID50, dose resulting in ½ the maximal depressant effect) (Swiss-Webster mice [2]): 38.5 mg/kg
- locomotor depressant effect (in words) (Swiss-Webster mice [2]): some locomotor depression
- locomotor stimulant effect (in words) (Swiss-Webster mice [2]): negligible stimulation compared to (−)-ephedrine, but weak stimulation when comared to (+)-amphetamine
- mydriasis / effect on pupil diameter (in words) [3]: produced mydriasis in the treated eye only
- effect on IOP (in words) [4]: Little or no increase in intraocular pressure
- modification of stimulant or depressant effects by triprolidine pretreatment (Swiss-Webster mice [5]): did not show significant modification of stimulant or depressant effects

SMILES: CC(N)Cc1ccccc1 (single isomer, unassigned; (+)) [(+)-amphetamine]
- locomotor depressant effect (in words) (Swiss-Webster mice [2]): did not cause locomotor depression
- locomotor stimulant effect (in words) (Swiss-Webster mice [2]): dose- and time-dependent increase in the distance traversed
- onset of increased locomotion after injection (Swiss-Webster mice [2]; (−)-ephedrine: following 50 to 100 mg/kg): ≤ 10 min

SMILES: CN[C@H](C)[C@@H](O)c1ccccc1 [(+)-ephedrine]
- Depression Potency (ID50, dose resulting in ½ the maximal depressant effect) (Swiss-Webster mice [2]): 7.4 mg/kg
- Stimulation Potency (ED50, dose resulting in ½ the maximal stimulant effect) (Swiss-Webster mice [2]): 38.2 mg/kg

SMILES: CNC[C@H](O)c1ccc(O)c(O)c1 [Epinephrine, epinephrine]
- displacement of bound p-iodoclonidine (α2-receptors; check for imidazoline receptor labelling): easily displaced all bound p-iodoclonidine

SMILES: CC(C)(C)NCC(O)COc1cccc2[nH]c(C#N)c(I)c12 (stereo not shown) [ICYP, iodocyanopindolol]
- Bmax (β2-receptors; Saturation Analysis, Run 1): 149 femtomoles per mg protein
- Kd (β2-receptors; Saturation Analysis, Run 1): 0.0096 nM
- Bmax (β2-receptors; Saturation Analysis, Run 2): 142 femtomoles per mg protein
- Kd (β2-receptors; Saturation Analysis, Run 2): 0.0093 nM
- Bmax (β2-receptors; Saturation Analysis, Summary): 146 femtomoles per mg protein
- Kd (β2-receptors; Saturation Analysis, Summary): 0.0095 nM
- Bmax (β2-receptors; Scatchard Analysis, Run 1): 150 femtomoles per mg protein
- Kd (β2-receptors; Scatchard Analysis, Run 1): 0.0099 nM
- Bmax (β2-receptors; Scatchard Analysis, Run 2): 139 femtomoles per mg protein
- Kd (β2-receptors; Scatchard Analysis, Run 2): 0.0078 nM
- Bmax (β2-receptors; Scatchard Analysis, Summary): 145 femtomoles per mg protein
- Kd (β2-receptors; Scatchard Analysis, Summary): 0.0089 nM

SMILES: Clc1cc(I)cc(Cl)c1NC1=NCCN1 [p-iodoclonidine]
- Kd (α2-receptors; Saturation Analysis, read-out: Kd1 (high affinity)): 0.15 nM
- Kd (α2-receptors; Saturation Analysis, read-out: Kd2 (low affinity)): 3.01 nM
- Kd (α2-receptors; Scatchard Analysis, read-out: Kd1 (high affinity)): 0.15 nM
- Kd (α2-receptors; Scatchard Analysis, read-out: Kd2 (low affinity)): 0.87 nM

SMILES: Cc1ccc(/C(=C\CN2CCCC2)c2ccccn2)cc1 [triprolidine]
- effect on horizontal distance, triprolidine alone (Swiss-Webster mice [5]; 0.25 to 25 mg/kg, injected immediately prior to testing, 2-hour test): failed to affect horizontal distance
- effect on locomotion, triprolidine alone (Swiss-Webster mice [5]; 50 and 100 mg/kg): Dose-dependent depression of locomotion
